3 molecules from ChEMBL document CHEMBL1126426, “Nucleotidic prodrugs of anti-HIV dideoxynucleosides” (Bioorg Med Chem Lett, 1992) can be followed below.

A short description of data set [1]: The compound was evaluated for its stability in CEM extract; S - Stable. It counts as physicochemical. As to conditions: human.
A short description of data set [2]: The compound was evaluated for its stability in RPMI at pH of 7.2 dose 10 x 10e-3; S - Stable. The conditions noted are these: pH 7.2. It counts as physicochemical.
The nature of data set [3]: The compound was evaluated for its stability in RPMI containing 10 % of FCS. Format: physicochemical. The conditions noted are these: cattle, RPMI culture medium with 10% FCS.
Data set [4] in a line: The compound was evaluated for its stability in RPMI containing 10 % of heat-inactivated FCS. It counts as physicochemical. As to conditions: cattle, RPMI culture medium with 10% heat-inactivated FCS.
The nature of data set [5]: Kinetic constant in RPMI containing 10 % of FCS. Format: ADME. The conditions noted are these: cattle.
The nature of data set [6]: Kinetic constant in RPMI containing 10 % of heat-inactivated FCS. It counts as ADME. As to conditions: cattle.
The subject of data set [7] is CCRF-CEM. In words: The compound was evaluated for the activity on HIV infected CEM cells. Format: functional. The conditions noted are these: Homo sapiens, read-out: ED50 (the source's name).

One may read the half-life as how long it takes for the measured level to halve. Low readings indicate fast loss, high ones slow loss. With `Nc1ccn(C2CCC(COP(=O)(O)OC[C@@H]3CC[C@H](n4ccc(N)nc4=O)O3)O2)c(=O)n1` (some centres undefined), the T1/2 result in data set [1] and in data set [2] was “Stable” throughout. In addition, the half-life in data set [3] is 22 h; in data set [4], 48 h. In addition, the k was determined as 0.00052 min⁻¹ in data set [5] and 0.00024 min⁻¹ in data set [6]. Also, the EC50 in data set [7] came to 50 nM.
Consider `COP(=O)(OCC1CCC(n2ccc(N)nc2=O)O1)OC[C@@H]1CC[C@H](n2ccc(N)nc2=O)O1` (some centres undefined), for which, in data set [7], the EC50 was found to be 500 nM.
The same measure, in the same setting: the same measure for `Nc1ccn([C@H]2CC[C@@H](CO)O2)c(=O)n1` [ZALCITABINE]: 100 nM.
